This is an account of results in PubChem BioAssay AID344 (DTP/NCI, 2004).

Inconclusive results and toxic doses are left out.

The assay deals with mice, LPC-1 plasma cell tumor ip, median survival T/C. Put plainly: NCI In Vivo Anticancer Drug Screen. Data for tumor model Lieberman Plasma Cell No. 1 (LPC-1) (intraperitoneal) in unknown mice. Particulars: endpoint: median survival time, higher = longer survival. As to the method: The antitumor activity of compounds was measured in mice bearing transplantable tumors. Survival or tumor size were measured and the results are expressed as the measurement made in the treated group (T) divided by the measurement made in the vehicle treated control group (C). The tumor model used in this assay is Lieberman Plasma Cell No. 1 (LPC-1) (intraperitoneal) in unknown mice

As to `O=C(O)CCc1c[nH]c2ccc(N(CCCl)CCCl)cc12`, the T/C is 182 % of control (dose: 1.8 mg/kg/injection, schedule: Q01DX028 (sc), vehicle: carboxymethylcellulose (CMC)); 113 % of control (dose: 2.7 mg/kg/injection, schedule: Q01DX028 (sc), vehicle: carboxymethylcellulose (CMC)); 164 % of control (dose: 3.0 mg/kg/injection, schedule: Q01DX028 (sc), vehicle: carboxymethylcellulose (CMC)); 151 % of control (dose: 5.0 mg/kg/injection, schedule: Q01DX028 (sc), vehicle: carboxymethylcellulose (CMC)); 163 % of control (dose: 6.0 mg/kg/injection, schedule: Q01DX028 (sc), vehicle: carboxymethylcellulose (CMC)); 86 % of control (dose: 9.0 mg/kg/injection, schedule: Q01DX028 (sc), vehicle: carboxymethylcellulose (CMC)).

For `C[C@]12C=CC(=O)C=C1CC[C@@H]1[C@@H]2C(=O)C[C@@]2(C)[C@H]1CC[C@]2(O)C(=O)CO`, the T/C was 86 % of control (dose: 16.0 mg/kg/injection, schedule: Q01DX028 (sc), vehicle: water); 86 % of control (dose: 32.0 mg/kg/injection, schedule: Q01DX028 (sc), vehicle: water); 105 % of control (dose: 50.0 mg/kg/injection, schedule: Q01DX028 (sc), vehicle: water); 91 % of control (dose: 128.0 mg/kg/injection, schedule: Q01DX028 (sc), vehicle: water); 92 % of control (dose: 200.0 mg/kg/injection, schedule: Q01DX028 (sc), vehicle: water).

Regarding `CCOc1ccccc1C(=O)Nc1ccc(Br)cc1`, the T/C (dose: 180.0 mg/kg/injection, schedule: Q01DX Z (sc), vehicle: carboxymethylcellulose (CMC)) was 97 % of control; the T/C (dose: 266.0 mg/kg/injection, schedule: Q01DX Z (sc), vehicle: carboxymethylcellulose (CMC)) was 105 % of control; the T/C (dose: 400.0 mg/kg/injection, schedule: Q01DX Z (sc), vehicle: carboxymethylcellulose (CMC)) is 100 % of control; the T/C (dose: 600.0 mg/kg/injection, schedule: Q01DX Z (sc), vehicle: carboxymethylcellulose (CMC)) is 94 % of control.

As for `CC1(C)CC(C)(c2ccc(O)cc2)c2ccccc2O1` (stereo unspecified), the T/C was 114 % of control (dose: 200.0 mg/kg/injection, schedule: Q01DX028 (sc), vehicle: steriod suspending solution) and 114 % of control (dose: 400.0 mg/kg/injection, schedule: Q01DX028 (sc), vehicle: steriod suspending solution).

On to `COc1cc2oc(=O)ccc2cc1CC=C(C)C`, for which, under “dose: 25.0 mg/kg/injection, schedule: Q01DX028 (sc), vehicle: saline”, the T/C was 100 % of control.

In the case of `O=C(O)CCCc1ccc(N(CCCl)CCCl)cc1`, the T/C by setting is: (dose: 1.0 mg/kg/injection, schedule: Q01DX007 (sc), vehicle: saline) 93 % of control; (dose: 2.0 mg/kg/injection, schedule: Q01DX007 (sc), vehicle: saline) 109 % of control; (dose: 3.0 mg/kg/injection, schedule: Q01DX028 (sc), vehicle: methylcellulose (MC)) 95 % of control; (dose: 4.0 mg/kg/injection, schedule: Q01DX007 (sc), vehicle: saline) 118 % of control; (dose: 5.0 mg/kg/injection, schedule: Q01DX028 (sc), vehicle: methylcellulose (MC)) 97 % of control; (dose: 8.4 mg/kg/injection, schedule: Q01DX028 (sc), vehicle: methylcellulose (MC)) 100 % of control. Besides, the T/C is 113 % of control (dose: 14.0 mg/kg/injection, schedule: Q01DX028 (sc), vehicle: methylcellulose (MC)) and 112 % of control (dose: 16.0 mg/kg/injection, schedule: Q01DX007 (sc), vehicle: saline).
